# Reference: US20240285571A1, “METHODS OF TREATING BONE INFECTIONS” (MICROBION CORPORATION, priority 2020, published 2024)
# Columns and labels:
# Experiment in all cases: MIC of baseline clinical isolates (Example 8)
# Type in all cases: cell-based
# [1] = test system: Staphylococcus haemolyticus; conditions: Staphylococcus haemolyticus baseline isolates (N′ = 1), central laboratory, mITT
# Protocol: (§1) Microbiology was assessed on Day 1 and at the time of any subsequent surgical procedure at the index site. Samples were collected from the infected bone site or involved tissue adjacent to any implant(s), swabs of the deep infection site, and the superficial tissue/wound closure/sinus tract site. […] Parallel sets of samples were analyzed by the local clinical site laboratory to guide patient antibiotic treatment.
# [2] = test system: Staphylococcus hominis; conditions: Staphylococcus hominis baseline isolates (N′ = 1), central laboratory, mITT
# Protocol: as §1
# [3] = test system: S. aureus (MRSA, MSSA); conditions: Staphylococcus aureus, MRSA baseline isolates (N′ = 4), central laboratory, mITT
# Protocol: as §1
# [4] = test system: Staphylococcus arlettae; conditions: Staphylococcus arlettae baseline isolates (N′ = 1), central laboratory, mITT
# Protocol: as §1
# [5] = test system: S. epidermidis; conditions: Staphylococcus epidermidis baseline isolates (N′ = 5), central laboratory, mITT
# Protocol: as §1
# [6] = test system: Staphylococcus pasteuri; conditions: Staphylococcus pasteuri baseline isolates (N′ = 1), central laboratory, mITT
# Protocol: as §1
# [7] = test system: Staphylococcus lugdunensis; conditions: Staphylococcus lugdunensis baseline isolates (N′ = 3), central laboratory, mITT
# Protocol: as §1
# [8] = test system: non-speciated Corynebacterium; conditions: Corynebacterium non-speciated baseline isolates (N′ = 2), central laboratory, mITT
# Protocol: (§2) Microbiology was assessed on Day 1 and at the time of any subsequent surgical procedure at the index site. Samples were collected from the infected bone site or involved tissue adjacent to any implant(s), swabs of the deep infection site, and the superficial tissue/wound closure/sinus tract site. Isolation and identification of aerobic and anerobic bacteria was conducted at a central microbiology laboratory (IHMA, Schaumburg, IL) and susceptibility of the isolates to MBN-101 (BisEDT) and comparator agents was performed per Clinical and Laboratory Standards Institute (CLSI). Parallel sets of samples were analyzed by the local clinical site laboratory to guide patient antibiotic treatment.
# [9] = test system: Streptococcus oralis; conditions: Streptococcus oralis baseline isolates (N′ = 1), central laboratory, mITT
# Protocol: as §2
# [10] = test system: Corynebacterium resistens; conditions: Corynebacterium resistens baseline isolates (N′ = 1), central laboratory, mITT
# Protocol: as §2
# [11] = test system: Corynebacterium amycolatum; conditions: Corynebacterium amycolatum baseline isolates (N′ = 1), central laboratory, mITT
# Protocol: as §2
# [12] = test system: Dermabacter hominis; conditions: Dermabacter hominis baseline isolates (N′ = 1), central laboratory, mITT
# Protocol: as §2
# [13] = test system: Corynebacterium jeikeium; conditions: Corynebacterium jeikeium baseline isolates (N′ = 2), central laboratory, mITT
# Protocol: as §2
Compound,Mean MIC [1] [mg/L],n (% resistant) [1],Mean MIC [2] [mg/L],n (% resistant) [2],Mean MIC [3] [mg/L],n (% resistant) [3],Mean MIC [4] [mg/L],n (% resistant) [4],Mean MIC [5] [mg/L],n (% resistant) [5],Mean MIC [6] [mg/L],n (% resistant) [6],Mean MIC [7] [mg/L],n (% resistant) [7],Mean MIC [8] [mg/L],Mean MIC [9] [mg/L],n (% resistant) [9],Mean MIC [10] [mg/L],n (% resistant) [10],Mean MIC [11] [mg/L],other results
CC1(C)S[C@@H]2[C@H](NC(=O)[C@H](N)c3ccc(O)cc3)C(=O)N2[C@H]1C(=O)O.O=C(O)[C@H]1/C(=C/CO)O[C@@H]2CC(=O)N21 [AMC],2.00,0 (0.0) n (%),2.00,0 (0.0) n (%),8.00,0 (0.0) n (%),0.25,0 (0.0) n (%),1.05,0 (0.0) n (%),0.12,0 (0.0) n (%),3.67,0 (0.0) n (%),4.03,0.06,0 (0.0) n (%),8.00,0 (0.0) n (%),1.00,n (% resistant) [8]: 0 (0.0) n (%); n (% resistant) [11]: 0 (0.0) n (%); Mean MIC [12]: 0.50 mg/L; n (% resistant) [12]: 0 (0.0) n (%); Mean MIC [13]: 3.00 mg/L; n (% resistant) [13]: 0 (0.0) n (%)
CC1(C)S[C@@H]2[C@H](NC(=O)[C@H](N)c3ccccc3)C(=O)N2[C@H]1C(=O)O [AMP],16.00,0 (0.0) n (%),4.00,0 (0.0) n (%),28.00,0 (0.0) n (%),0.50,0 (0.0) n (%),2.60,0 (0.0) n (%),0.25,0 (0.0) n (%),7.33,0 (0.0) n (%),,,,,,,
CN(C)c1ccc(O)c2c1C[C@H]1C[C@H]3[C@H](N(C)C)C(O)=C(C(N)=O)C(=O)[C@@]3(O)C(O)=C1C2=O [MIN],0.12,0 (0.0) n (%),0.12,0 (0.0) n (%),0.11,0 (0.0) n (%),0.25,0 (0.0) n (%),0.18,0 (0.0) n (%),0.06,0 (0.0) n (%),0.05,0 (0 0) n (%),,,,,,,
Cc1onc(-c2ccccc2)c1C(=O)N[C@@H]1C(=O)N2[C@@H]1SC(C)(C)[C@@H]2C(=O)O [OXA],4.00,1 (100.0) n (%),4.00,1 (100.0) n (%),,4 (100.0) n (%),2.00,1 (100.0) n (%),125,2 (40.0) n (%),0.25,0 (0.0) n (%),2.83,2. (66.7) n (%),,,,,,,
COc1cc(Cc2cnc(N)nc2N)cc(OC)c1OC.Cc1cc(NS(=O)(=O)c2ccc(N)cc2)no1 [SXT],0.25,10.0 n (%),8.00,,2.09,1 (25.0) n (%),8.00,1 (100.0) n (%),4.42,3 (60.0) n (%),0.12,,0.16,0 (0.0) n (%),2.25,0.12,0 (0.0) n (%),2.00,0 (0.0) n (%),0.25,n (% resistant) [11]: 0 (0.0) n (%); Mean MIC [12]: 4.00 mg/L; Mean MIC [13]: 2.00 mg/L; n (% resistant) [13]: 0 (0.0) n (%)
